Assay results reported in US20230263914A1, “BENZENE RING-CONTAINING GLUCOSE DERIVATIVE AND USE THEREOF” (priority 2020, published 2023).

Legend:
[1] = Determination of lipid-water partition coefficient (n-octanol/PBS pH 7.4); format: physicochemical; conditions: n-octanol / PBS 0.025 M; for logP: n-octanol/phosphate buffer solution (PBS)
Protocol: A 2 mL centrifuge tube was added with 100 µL (10µCi) of a labeling solution, then added with 950 µL of n-octanol and 850 µL of phosphate buffer solution (PBS, 0.025 M, pH=7.4). The 2 mL centrifuge tube was subjected to vortex for 3 min (2,500 rpm) and standing until the reaction solution was layered, and then centrifuged at 9,000 rpm for 5 min. Three samples (each for 100 µL) were collected from each of the two phases, and placed in γ-counter for the determination of radioactive counting. The lipid-water partition coefficient (P) was calculated by Organic phase radioactive counting/ water phase radioactive counting, and was usually expressed as Log P. The log P values of the radioactive compounds provided in Examples 1-4 were shown in Table 3.

[2] = system: S180 tumor; assay: Biodistribution in tumor-bearing mice; format: in vivo; conditions: for Blood / Bone / Heart / Kidney / Liver / Lung / Muscle / Small intestine / Spleen / Thyroid / Tumor / Tumor/blood ratio / Tumor/muscle ratio: i.v., mice bearing S180 tumor; for target/non-target ratio compared with 99mTc-CNPEDG / tumor uptake compared with 99mTc-CNPEDG / tumor/muscle, tumor/blood and tumor/lung ratio compared with p-substituted 99mTc complexes / Tumor/lung ratio: 120 min p.i.
Protocol: The mice bearing S180 tumors were injected intravenously via the tail vein respectively with the solutions (0.1 mL, 370 kBq) containing the radioactive drugs of Examples 1-4. The mice bearing S180 tumors were sacrificed by decapitation at different time points (30 min, 120 min) after the injection (5 mice for each time point). After dissection, the heart, liver, lung, kidney, spleen, bone, muscle, small intestine, blood and tumors were harvested, and measured for radioactivity with the γ-counter. The biodistribution individual organs or tissues was expressed as the percentage of the injected dose per gram of organ or tissue (% ID/g).

[3] = 120 min, mean ± SD, listed as 99mTc-4-CNPEDG

Row | SMILES | Blood ([2]; 30 min, n=5, mean ± SD) [% ID/g] | Bone ([2]; 30 min, n=5, mean ± SD) [% ID/g] | Heart ([2]; 30 min, n=5, mean ± SD) [% ID/g] | Kidney ([2]; 30 min, n=5, mean ± SD) [% ID/g] | Liver ([2]; 30 min, n=5, mean ± SD) [% ID/g] | Lung ([2]; 30 min, n=5, mean ± SD) [% ID/g] | Muscle ([2]; 30 min, n=5, mean ± SD) [% ID/g] | Small intestine ([2]; 30 min, n=5, mean ± SD) [% ID/g] | Spleen ([2]; 30 min, n=5, mean ± SD) [% ID/g] | Thyroid ([2]; 30 min, n=5, mean ± SD) [%ID/g] | Tumor ([2]; 30 min, n=5, mean ± SD) [% ID/g] | Tumor/blood ratio ([2]; 30 min, n=5, mean ± SD) | Blood ([2]; 120 min, mean ± SD) [% ID/g] | Kidney ([2]; 120 min, mean ± SD) [% ID/g] | Liver ([2]; 120 min, mean ± SD) [% ID/g] | Lung ([2]; 120 min, mean ± SD) [% ID/g] | Muscle ([2]; 120 min, mean ± SD) [% ID/g] | Tumor ([2]; 120 min, mean ± SD) [% ID/g] | Tumor/blood ratio ([2]; 120 min, mean ± SD) | Tumor/muscle ratio ([2]; 120 min, mean ± SD) | other results
1 | O=C(NC1C(O)OC(CO)C(O)C1O)c1cccc([N+]#[C][99Tc+]([C]#[N+]c2cccc(C(=O)NC3C(O)OC(CO)C(O)C3O)c2)([C]#[N+]c2cccc(C(=O)NC3C(O)OC(CO)C(O)C3O)c2)([C]#[N+]c2cccc(C(=O)NC3C(O)OC(CO)C(O)C3O)c2)([C]#[N+]c2cccc(C(=O)NC3C(O)OC(CO)C(O)C3O)c2)[C]#[N+]c2cccc(C(=O)NC3C(O)OC(CO)C(O)C3O)c2)c1 (centres unmarked) [^99mTc-3-CNBzDG] | 2.53 ± 0.83 | 1.44 ± 0.29 | 1.44 ± 0.21 | 6.69 ± 0.68 | 1.38 ± 0.24 | 4.00 ± 0.52 | 0.77 ± 0.06 | 2.05 ± 0.29 | 1.06 ± 0.27 | 0.03 ± 0.01 | 2.51 ± 0.52 | 1.04 ± 0.22 | 0.27 ± 0.02 | 4.49 ± 0.56 | 0.89 ± 0.09 | 0.76 ± 0.20 | 0.24 ± 0.05 | 1.47 ± 0.22 | 5.39 ± 0.79 | 6.16 ± 0.71 | logP [1]: -3.74 ± 0.038; Tumor/muscle ratio ([2]; 30 min, n=5, mean ± SD): 3.28 ± 0.66; Bone ([2]; 120 min, mean ± SD): 0.42 ± 0.03 % ID/g; Heart ([2]; 120 min, mean ± SD): 0.54 ± 0.07 % ID/g; Small intestine ([2]; 120 min, mean ± SD): 0.70 ± 0.10 % ID/g; Spleen ([2]; 120 min, mean ± SD): 0.43 ± 0.17 % ID/g; Thyroid ([2]; 120 min, mean ± SD): 0.01 ± 0.00 %ID/g; target/non-target ratio compared with 99mTc-CNPEDG ([2]; in words): better target/non-target ratio; tumor uptake compared with 99mTc-CNPEDG ([2]; in words): lower tumor uptake; tumor/muscle, tumor/blood and tumor/lung ratio compared with p-substituted 99mTc complexes ([2]; in words): higher; Tumor/lung ratio ([2]; mean ± SD): 2.01 ± 0.35
2 | O=C(NC1C(O)OC(CO)C(O)C1O)c1cccc(C[N+]#[C][99Tc+]([C]#[N+]Cc2cccc(C(=O)NC3C(O)OC(CO)C(O)C3O)c2)([C]#[N+]Cc2cccc(C(=O)NC3C(O)OC(CO)C(O)C3O)c2)([C]#[N+]Cc2cccc(C(=O)NC3C(O)OC(CO)C(O)C3O)c2)([C]#[N+]Cc2cccc(C(=O)NC3C(O)OC(CO)C(O)C3O)c2)[C]#[N+]Cc2cccc(C(=O)NC3C(O)OC(CO)C(O)C3O)c2)c1 (centres unmarked) [^99mTc-3-CNPEDG] | 2.82 ± 0.30 | 1.26 ± 0.23 | 1.18 ± 0.12 | 9.69 ± 3.48 | 1.30 ± 0.06 | 3.10 ± 0.22 | 0.82 ± 0.24 | 2.19 ± 0.69 | 0.86 ± 0.09 | 0.04 ± 0.01 | 2.72 ± 0.36 | 0.97 ± 0.07 | 0.22 ± 0.07 | 4.70 ± 0.81 | 0.68 ± 0.07 | 0.42 ± 0.09 | 0.16 ± 0.04 | 1.35 ± 0.20 | 6.40 ± 1.45 | 8.76 ± 1.14 | logP [1]: -3.39 ± 0.166; Tumor/muscle ratio ([2]; 30 min, n=5, mean ± SD): 3.49 ± 0.71; Bone ([2]; 120 min, mean ± SD): 0.30 ± 0.06 % ID/g; Heart ([2]; 120 min, mean ± SD): 0.23 ± 0.05 % ID/g; Small intestine ([2]; 120 min, mean ± SD): 0.43 ± 0.11 % ID/g; Spleen ([2]; 120 min, mean ± SD): 0.25 ± 0.06 % ID/g; Thyroid ([2]; 120 min, mean ± SD): 0.01 ± 0.00 %ID/g; target/non-target ratio compared with 99mTc-CNPEDG ([2]; in words): better target/non-target ratio; tumor uptake compared with 99mTc-CNPEDG ([2]; in words): lower tumor uptake; tumor/muscle, tumor/blood and tumor/lung ratio compared with p-substituted 99mTc complexes ([2]; in words): higher; Tumor/lung ratio ([2]; mean ± SD): 3.26 ± 0.37
3 | O=C(NC1C(O)OC(CO)C(O)C1O)c1ccc([N+]#[C][99Tc+]([C]#[N+]c2ccc(C(=O)NC3C(O)OC(CO)C(O)C3O)cc2)([C]#[N+]c2ccc(C(=O)NC3C(O)OC(CO)C(O)C3O)cc2)([C]#[N+]c2ccc(C(=O)NC3C(O)OC(CO)C(O)C3O)cc2)([C]#[N+]c2ccc(C(=O)NC3C(O)OC(CO)C(O)C3O)cc2)[C]#[N+]c2ccc(C(=O)NC3C(O)OC(CO)C(O)C3O)cc2)cc1 (centres unmarked) [^99mTc-4-CNBzDG] | – | – | – | – | – | – | – | – | – | – | – | – | – | – | – | – | – | – | 0.47 ± 0.02 | 2.34 ± 0.18 | Tumor/lung ratio ([2]; mean ± SD): 0.49 ± 0.02
4 | O=C(Cc1ccc(C[N+]#[C][99Tc+]([C]#[N+]Cc2ccc(CC(=O)NC3C(O)OC(CO)C(O)C3O)cc2)([C]#[N+]Cc2ccc(CC(=O)NC3C(O)OC(CO)C(O)C3O)cc2)([C]#[N+]Cc2ccc(CC(=O)NC3C(O)OC(CO)C(O)C3O)cc2)([C]#[N+]Cc2ccc(CC(=O)NC3C(O)OC(CO)C(O)C3O)cc2)[C]#[N+]Cc2ccc(CC(=O)NC3C(O)OC(CO)C(O)C3O)cc2)cc1)NC1C(O)OC(CO)C(O)C1O (centres unmarked) [^99mTc-4-CNMBDG] | 4.08 ± 0.57 | 3.05 ± 0.62 | 2.67 ± 0.41 | 10.18 ± 1.28 | 3.00 ± 0.55 | 5.89 ± 0.59 | 1.96 ± 0.50 | 4.04 ± 0.87 | 2.24 ± 0.38 | 0.07 ± 0.01 | 6.46 ± 1.86 | 1.57 ± 0.36 | 0.64 ± 0.22 | 7.37 ± 1.71 | 2.43 ± 0.49 | 1.31 ± 0.44 | 0.86 ± 0.15 | 6.22 ± 1.77 | 10.06 ± 1.54 | 7.14 ± 1.11 | logP [1]: -3.1 ± 0.036; Tumor/muscle ratio ([2]; 30 min, n=5, mean ± SD): 3.52 ± 1.35; Bone ([2]; 120 min, mean ± SD): 1.27 ± 0.35 % ID/g; Heart ([2]; 120 min, mean ± SD): 1.31 ± 0.18 % ID/g; Small intestine ([2]; 120 min, mean ± SD): 1.65 ± 0.43 % ID/g; Spleen ([2]; 120 min, mean ± SD): 1.28 ± 0.34 % ID/g; Thyroid ([2]; 120 min, mean ± SD): 0.03 ± 0.01 %ID/g; tumor uptake compared with 99mTc-CNPEDG ([2]; in words): higher tumor uptake; clearance in blood ([2]; compared with 99mTc-CNPEDG, in words): faster clearance in blood
5 | O=C(NC1C(O)OC(CO)C(O)C1O)c1ccc(CC[N+]#[C][99Tc+]([C]#[N+]CCc2ccc(C(=O)NC3C(O)OC(CO)C(O)C3O)cc2)([C]#[N+]CCc2ccc(C(=O)NC3C(O)OC(CO)C(O)C3O)cc2)([C]#[N+]CCc2ccc(C(=O)NC3C(O)OC(CO)C(O)C3O)cc2)([C]#[N+]CCc2ccc(C(=O)NC3C(O)OC(CO)C(O)C3O)cc2)[C]#[N+]CCc2ccc(C(=O)NC3C(O)OC(CO)C(O)C3O)cc2)cc1 (centres unmarked) [^99mTc-4-CNPeDG] | 2.42 ± 0.16 | 1.10 ± 0.07 | 1.15 ± 0.04 | 7.32 ± 0.90 | 0.95 ± 0.03 | 2.80 ± 0.13 | 0.68 ± 0.05 | 1.38 ± 0.20 | 0.70 ± 0.02 | 0.02 ± 0.00 | 2.80 ± 0.04 | 1.16 ± 0.09 | 0.10 ± 0.04 | 2.98 ± 0.74 | 0.38 ± 0.08 | 0.23 ± 0.03 | 0.10 ± 0.02 | 0.95 ± 0.21 | 10.17 ± 1.95 | 9.69 ± 1.81 | Log P [1]: -3.593 ± 0.012; Tumor/muscle ratio ([2]; 30 min, n=5, mean ± SD): 4.16 ± 0.35; Bone ([2]; 120 min, mean ± SD): 0.18 ± 0.03 % ID/g; Heart ([2]; 120 min, mean ± SD): 0.15 ± 0.02 % ID/g; Small intestine ([2]; 120 min, mean ± SD): 0.31 ± 0.07 % ID/g; Spleen ([2]; 120 min, mean ± SD): 0.17 ± 0.03 % ID/g; Thyroid ([2]; 120 min, mean ± SD): 0.003 ± 0.001 %ID/g; Tumor/blood ratio [2, 3]: 3.29 ± 0.12; Tumor/muscle ratio [2, 3]: 5.21 ± 0.50; target/non-target ratio compared with 99mTc-CNPEDG ([2]; in words): better target/non-target ratio; tumor uptake compared with 99mTc-CNPEDG ([2]; in words): lower tumor uptake; Tumor/lung ratio ([2]; mean ± SD): 1.81 ± 0.30
6 | O=C(NC1C(O)OC(CO)C(O)C1O)c1ccc(C[N+]#[C][99Tc+]([C]#[N+]Cc2ccc(C(=O)NC3C(O)OC(CO)C(O)C3O)cc2)([C]#[N+]Cc2ccc(C(=O)NC3C(O)OC(CO)C(O)C3O)cc2)([C]#[N+]Cc2ccc(C(=O)NC3C(O)OC(CO)C(O)C3O)cc2)([C]#[N+]Cc2ccc(C(=O)NC3C(O)OC(CO)C(O)C3O)cc2)[C]#[N+]Cc2ccc(C(=O)NC3C(O)OC(CO)C(O)C3O)cc2)cc1 (centres unmarked) [^99mTc-CNPEDG, reference compound] | – | – | – | – | – | – | – | – | – | – | – | – | 1.29 ± 0.16 | 7.56 ± 0.94 | 2.52 ± 0.26 | 2.39 ± 0.31 | 0.82 ± 0.08 | 4.25 ± 0.56 | 3.29 ± 0.12 | 5.21 ± 0.50 | –
